Series [1] can be described thus: Etoposide solubility in various solvents. The format is physicochemical. The text has this: The high etoposide concentration achievable renders the solution useful as gelatin capsule fill. Table III compares the solubility of etoposide in various solvents.
For series [2] the following is noted: oral gelatin capsule vs IV; cited from earlier work.
The nature of series [3]: Crystallization on dilution with water or parenteral vehicle.
The conditions of series [4]: water, ethanol, ether, chloroform, benzene, ethyl acetate, and carbon disulfide; cited from earlier work.

In brackets after ≈: the same amount, converted by molar mass. Some results are limits rather than exact numbers.

In general, solubility refers to the dissolved amount per volume that the medium holds. As to `COc1cc([C@@H]2c3cc4c(cc3[C@@H](O[C@@H]3O[C@@H]5CO[C@@H](C)O[C@H]5[C@H](O)[C@H]3O)[C@H]3COC(=O)[C@H]23)OCO4)cc(OC)c1O` [etoposide, 4'-demethylepipodophyllotoxin-9-(4,6-O(R)-ethylidine-β-D-glucopyranoside)], the solubility was over 500 mg/mL in series [1] (1-methyl-2-pyrrolidinone, organic solvent or mixture, solvent: 1-Methyl-2-pyrrolidinone); 104 mg/mL (≈ 177 mM) in series [1] (benzyl alcohol, organic solvent or mixture, solvent: Benzyl Alcohol); 320 mg/mL (≈ 544 mM) in series [1] (dimethylisosorbide, organic solvent or mixture, solvent: Dimethylisosorbide); under 1 mg/mL in series [1] (ethanol, organic solvent or mixture, solvent: Ethanol); 11 mg/mL (≈ 18.7 mM) in series [1] (propylene glycol, organic solvent or mixture, solvent: Propylene Glycol); 0.1 mg/mL (≈ 0.17 mM) in series [1] (water, solvent: Water). Moreover, in series [2], the “Gelatin capsule dose relative to IV dose for equivalent blood level” value is recorded as “twice as high”. For the same molecule, the “Crystallization on dilution with water” value in series [3] (solution in 1-ethyl-2-pyrrolidinone, diluted with water to 0.5-5 mg/ml) is given as “rapid deposit of etoposide crystals”; in series [3] (solution in 2-pyrrolidinone, diluted with water to 0.5-5 mg/ml), “rapid deposit of etoposide crystals”; in series [3] (solution in dimethylacetamide, diluted with water to 0.5-5 mg/ml) it was “rapid deposit of etoposide crystals”; in series [3] (solution in dimethylformamide, diluted with water to 0.5-5 mg/ml), “rapid deposit of etoposide crystals”; in series [3] (solution in dimethylisosorbide, diluted with water to 0.5-5 mg/ml), “rapid deposit of etoposide crystals”; in series [3] (solution in ethanol, diluted with water to 0.5-5 mg/ml) it was “rapid deposit of etoposide crystals”. Also, the “Crystallization on dilution with water” value is “rapid deposit of etoposide crystals” in series [3] (solution in polyethylene glycol-300, diluted with water to 0.5-5 mg/ml) and “rapid deposit of etoposide crystals” in series [3] (solution in propylene glycol, diluted with water to 0.5-5 mg/ml).
With `CN1CCCC1=O` [1-Methyl-2-pyrrolidinone, 1-methyl-2-pyrrolidinone], the Miscibility entry in series [4] was “miscible”.

The record behind these values is patent US4772589A, “Etoposide solution in NMP” (Bristol-Myers, priority 1986, dated 1988).
